In US6358885B1, “Substituted phenylheterocyclic herbicides” (Mississippi State University, priority 1992, dated 2002):

How the values were obtained:
Assay in all cases: Test F preemergence/postemergence greenhouse plant response rating 0 to 100
blackgrass = type: in vivo, Alopecurus myosuroides; settings: PREEMERGENCE, 0 to 100 scale
Description: (§1) Compounds evaluated in this test were formulated in a non-phytoxic solvent and applied to the soil surface before plant seedlings emerged (preemergence application) and to plants that were in the one-to-four leaf stage (postemergence application). A sandy loam soil was used for the preemergence test while a mixture of sandy loam soil and greenhouse potting mix in a 60:40 ratio was used for the postemergence test. Test compounds were applied within approximately one day after planting seeds for the preemergence test. Plantings of these crops and weed species were adjusted to produce plants of appropriate size for the postemergence test. All plant species were grown using normal greenhouse practices. Crop and weed species include winter barley (Hordeum vulgare cv. ‘Igri’), blackgrass (Alopecurus myosuroides), chickweed (Stellaria media), downy brome (Bromus tectorum), field violet (Viola arvensis), galium (Galium aparine), green foxtail (Setaria viridis), kochia (Kochia scoparia), lambsquarters (Chenopodium album), speedwell (Veronica persica), rape (Brassica napus), ryegrass (Lolium multiflorum), sugar beet (Beta vulgaris cv. ‘USl’), sunflower (Helianthus annuus cv. ‘Russian Giant’), spring wheat (Triticum aestivum cv. ‘ERA’), winter wheat (Triticum aestivum cv. ‘Talent’), wild buckwheat (Polygonum convolvulus), wild mustard (Sinapis arvensis), wild oat (Avena fatua), and wild radish (Raphanus raphanistrum). Blackgrass, galium and wild oat were treated at two growth stages. […] Treated plants and untreated controls were maintained in a greenhouse for approximately 21 to 28 days, after which all treated plants were compared to untreated controls and visually evaluated. […] A dash response (-) means no test result.

wild oat = type: in vivo, Avena fatua; settings: 0 to 100 scale
Description: as §1

lambsquarters = type: in vivo, Chenopodium album; settings: 0 to 100 scale
Description: as §1

winter wheat = type: in vivo, Triticum aestivum cv. ‘Talent’; settings: 0 to 100 scale
Description: as §1

wild radish = type: in vivo, Raphanus raphanistrum; settings: 0 to 100 scale
Description: as §1

kochia = type: in vivo, Kochia scoparia; settings: 0 to 100 scale
Description: as §1

winter barley = type: in vivo, Hordeum vulgare cv. ‘Igri’; settings: 0 to 100 scale
Description: as §1

speedwell = type: in vivo, Veronica persica; settings: 0 to 100 scale
Description: as §1

C#CCOc1cc(-c2nn3c(c2Br)CCCC3)c(F)cc1Cl [Compound 26]
Blackgrass (2) plant response rating (blackgrass; Rate 16 g/ha): 0
Blackgrass (1) plant response rating (blackgrass; Rate 32 g/ha): 0
Blackgrass (2) plant response rating (blackgrass; Rate 32 g/ha): 0
Blackgrass (1) plant response rating (blackgrass; Rate 64 g/ha): 0
Blackgrass (2) plant response rating (blackgrass; Rate 64 g/ha): 0
Blackgrass (1) plant response rating (blackgrass; Rate 125 g/ha): 20
Blackgrass (2) plant response rating (blackgrass; Rate 125 g/ha): 40
Blackgrass (1) plant response rating (blackgrass; Rate 250 g/ha): 40
Blackgrass (2) plant response rating (blackgrass; Rate 250 g/ha): 40
Wild oat (1) plant response rating (wild oat; POSTEMERGENCE, Rate 4 g/ha, stage (1) two to three leaves): 0
Wild oat (2) plant response rating (wild oat; POSTEMERGENCE, Rate 4 g/ha, stage (2) approximately four leaves or initial tillering): 0
Wild oat (1) plant response rating (wild oat; POSTEMERGENCE, Rate 8 g/ha, stage (1) two to three leaves): 0
Wild oat (2) plant response rating (wild oat; POSTEMERGENCE, Rate 8 g/ha, stage (2) approximately four leaves or initial tillering): 0
Wild oat (1) plant response rating (wild oat; POSTEMERGENCE, Rate 16 g/ha, stage (1) two to three leaves): 0
Wild oat (2) plant response rating (wild oat; POSTEMERGENCE, Rate 16 g/ha, stage (2) approximately four leaves or initial tillering): 0
Wild oat (1) plant response rating (wild oat; POSTEMERGENCE, Rate 32 g/ha, stage (1) two to three leaves): 25
Wild oat (2) plant response rating (wild oat; POSTEMERGENCE, Rate 32 g/ha, stage (2) approximately four leaves or initial tillering): 15
Wild oat (1) plant response rating (wild oat; POSTEMERGENCE, Rate 64 g/ha, stage (1) two to three leaves): 40
Wild oat (2) plant response rating (wild oat; POSTEMERGENCE, Rate 64 g/ha, stage (2) approximately four leaves or initial tillering): 15
Wild oat (1) plant response rating (wild oat; POSTEMERGENCE, Rate 125 g/ha, stage (1) two to three leaves): 45
Wild oat (2) plant response rating (wild oat; POSTEMERGENCE, Rate 125 g/ha, stage (2) approximately four leaves or initial tillering): 20
Wild oat (1) plant response rating (wild oat; POSTEMERGENCE, Rate 250 g/ha, stage (1) two to three leaves): 50
Wild oat (2) plant response rating (wild oat; POSTEMERGENCE, Rate 250 g/ha, stage (2) approximately four leaves or initial tillering): 30
Wild oat (1) plant response rating (wild oat; PREEMERGENCE, Rate 4 g/ha, Wild oat (1)): 0
Wild oat (2) plant response rating (wild oat; PREEMERGENCE, Rate 4 g/ha, Wild oat (2)): 0
Wild oat (1) plant response rating (wild oat; PREEMERGENCE, Rate 8 g/ha, Wild oat (1)): 0
Wild oat (2) plant response rating (wild oat; PREEMERGENCE, Rate 8 g/ha, Wild oat (2)): 0
Wild oat (1) plant response rating (wild oat; PREEMERGENCE, Rate 16 g/ha, Wild oat (1)): 0
Wild oat (2) plant response rating (wild oat; PREEMERGENCE, Rate 16 g/ha, Wild oat (2)): 0
Wild oat (1) plant response rating (wild oat; PREEMERGENCE, Rate 32 g/ha, Wild oat (1)): 0
Wild oat (2) plant response rating (wild oat; PREEMERGENCE, Rate 32 g/ha, Wild oat (2)): 0
Wild oat (1) plant response rating (wild oat; PREEMERGENCE, Rate 64 g/ha, Wild oat (1)): 10
Wild oat (2) plant response rating (wild oat; PREEMERGENCE, Rate 64 g/ha, Wild oat (2)): 20
Wild oat (1) plant response rating (wild oat; PREEMERGENCE, Rate 125 g/ha, Wild oat (1)): 20
Wild oat (2) plant response rating (wild oat; PREEMERGENCE, Rate 125 g/ha, Wild oat (2)): 30
Wild oat (1) plant response rating (wild oat; PREEMERGENCE, Rate 250 g/ha, Wild oat (1)): 30
Wild oat (2) plant response rating (wild oat; PREEMERGENCE, Rate 250 g/ha, Wild oat (2)): 50
Lambsquarters plant response rating (lambsquarters; POSTEMERGENCE, Rate 8 g/ha): 50
Lambsquarters plant response rating (lambsquarters; POSTEMERGENCE, Rate 16 g/ha): 50
Lambsquarters plant response rating (lambsquarters; POSTEMERGENCE, Rate 32 g/ha): 100
Lambsquarters plant response rating (lambsquarters; POSTEMERGENCE, Rate 64 g/ha): 100
Lambsquarters plant response rating (lambsquarters; POSTEMERGENCE, Rate 125 g/ha): 100
Lambsquarters plant response rating (lambsquarters; POSTEMERGENCE, Rate 250 g/ha): 100
Lambsquarters plant response rating (lambsquarters; PREEMERGENCE, Rate 4 g/ha): 0
Lambsquarters plant response rating (lambsquarters; PREEMERGENCE, Rate 8 g/ha): 70
Lambsquarters plant response rating (lambsquarters; PREEMERGENCE, Rate 16 g/ha): 80
Lambsquarters plant response rating (lambsquarters; PREEMERGENCE, Rate 32 g/ha): 100
Lambsquarters plant response rating (lambsquarters; PREEMERGENCE, Rate 64 g/ha): 100
Lambsquarters plant response rating (lambsquarters; PREEMERGENCE, Rate 125 g/ha): 100
Wheat (Winter) plant response rating (winter wheat; POSTEMERGENCE, Rate 4 g/ha): 0
Wheat (Winter) plant response rating (winter wheat; POSTEMERGENCE, Rate 8 g/ha): 0
Wheat (Winter) plant response rating (winter wheat; POSTEMERGENCE, Rate 16 g/ha): 0
Wheat (Winter) plant response rating (winter wheat; POSTEMERGENCE, Rate 32 g/ha): 15
Wheat (Winter) plant response rating (winter wheat; POSTEMERGENCE, Rate 64 g/ha): 20
Wheat (Winter) plant response rating (winter wheat; POSTEMERGENCE, Rate 125 g/ha): 30
Wheat (Winter) plant response rating (winter wheat; POSTEMERGENCE, Rate 250 g/ha): 20
Wheat (Winter) plant response rating (winter wheat; PREEMERGENCE, Rate 4 g/ha): 0
Wheat (Winter) plant response rating (winter wheat; PREEMERGENCE, Rate 8 g/ha): 0
Wheat (Winter) plant response rating (winter wheat; PREEMERGENCE, Rate 16 g/ha): 0
Wheat (Winter) plant response rating (winter wheat; PREEMERGENCE, Rate 32 g/ha): 0
Wheat (Winter) plant response rating (winter wheat; PREEMERGENCE, Rate 64 g/ha): 0
Wheat (Winter) plant response rating (winter wheat; PREEMERGENCE, Rate 125 g/ha): 10
Wheat (Winter) plant response rating (winter wheat; PREEMERGENCE, Rate 250 g/ha): 20
Wild radish plant response rating (wild radish; POSTEMERGENCE, Rate 4 g/ha): 0
Wild radish plant response rating (wild radish; POSTEMERGENCE, Rate 8 g/ha): 20
Wild radish plant response rating (wild radish; POSTEMERGENCE, Rate 16 g/ha): 60
Wild radish plant response rating (wild radish; POSTEMERGENCE, Rate 32 g/ha): 60
Wild radish plant response rating (wild radish; POSTEMERGENCE, Rate 64 g/ha): 60
Wild radish plant response rating (wild radish; POSTEMERGENCE, Rate 125 g/ha): 60
Wild radish plant response rating (wild radish; POSTEMERGENCE, Rate 250 g/ha): 60
Wild radish plant response rating (wild radish; PREEMERGENCE, Rate 4 g/ha): 0
Wild radish plant response rating (wild radish; PREEMERGENCE, Rate 8 g/ha): 0
Wild radish plant response rating (wild radish; PREEMERGENCE, Rate 16 g/ha): 0
Wild radish plant response rating (wild radish; PREEMERGENCE, Rate 32 g/ha): 0
Wild radish plant response rating (wild radish; PREEMERGENCE, Rate 64 g/ha): 40
Wild radish plant response rating (wild radish; PREEMERGENCE, Rate 125 g/ha): 70
Wild radish plant response rating (wild radish; PREEMERGENCE, Rate 250 g/ha): 100
Kochia plant response rating (kochia; POSTEMERGENCE, Rate 4 g/ha): 100
Kochia plant response rating (kochia; POSTEMERGENCE, Rate 8 g/ha): 100
Kochia plant response rating (kochia; POSTEMERGENCE, Rate 16 g/ha): 100
Kochia plant response rating (kochia; POSTEMERGENCE, Rate 32 g/ha): 100
Kochia plant response rating (kochia; POSTEMERGENCE, Rate 64 g/ha): 100
Kochia plant response rating (kochia; POSTEMERGENCE, Rate 125 g/ha): 100
Kochia plant response rating (kochia; POSTEMERGENCE, Rate 250 g/ha): 100
Kochia plant response rating (kochia; PREEMERGENCE, Rate 4 g/ha): 0
Kochia plant response rating (kochia; PREEMERGENCE, Rate 8 g/ha): 0
Kochia plant response rating (kochia; PREEMERGENCE, Rate 16 g/ha): 80
Kochia plant response rating (kochia; PREEMERGENCE, Rate 32 g/ha): 80
Kochia plant response rating (kochia; PREEMERGENCE, Rate 64 g/ha): 100
Kochia plant response rating (kochia; PREEMERGENCE, Rate 125 g/ha): 100
Winter Barley plant response rating (winter barley; POSTEMERGENCE, Rate 4 g/ha): 0
Winter Barley plant response rating (winter barley; POSTEMERGENCE, Rate 8 g/ha): 0
Winter Barley plant response rating (winter barley; POSTEMERGENCE, Rate 16 g/ha): 0
Winter Barley plant response rating (winter barley; POSTEMERGENCE, Rate 32 g/ha): 20
Winter Barley plant response rating (winter barley; POSTEMERGENCE, Rate 64 g/ha): 30
Winter Barley plant response rating (winter barley; POSTEMERGENCE, Rate 125 g/ha): 30
Winter Barley plant response rating (winter barley; POSTEMERGENCE, Rate 250 g/ha): 30
Winter Barley plant response rating (winter barley; PREEMERGENCE, Rate 4 g/ha): 0
Winter Barley plant response rating (winter barley; PREEMERGENCE, Rate 8 g/ha): 0
Winter Barley plant response rating (winter barley; PREEMERGENCE, Rate 16 g/ha): 0
Winter Barley plant response rating (winter barley; PREEMERGENCE, Rate 32 g/ha): 0
Winter Barley plant response rating (winter barley; PREEMERGENCE, Rate 64 g/ha): 0
Winter Barley plant response rating (winter barley; PREEMERGENCE, Rate 125 g/ha): 15
Winter Barley plant response rating (winter barley; PREEMERGENCE, Rate 250 g/ha): 20
Persn Speedwell plant response rating (speedwell; POSTEMERGENCE, Rate 4 g/ha): 60
Persn Speedwell plant response rating (speedwell; POSTEMERGENCE, Rate 8 g/ha): 60
Persn Speedwell plant response rating (speedwell; POSTEMERGENCE, Rate 32 g/ha): 100
Persn Speedwell plant response rating (speedwell; POSTEMERGENCE, Rate 64 g/ha): 100
Persn Speedwell plant response rating (speedwell; POSTEMERGENCE, Rate 125 g/ha): 100
Persn Speedwell plant response rating (speedwell; POSTEMERGENCE, Rate 250 g/ha): 100
Persn Speedwell plant response rating (speedwell; PREEMERGENCE, Rate 4 g/ha): 50
Persn Speedwell plant response rating (speedwell; PREEMERGENCE, Rate 8 g/ha): 80
Persn Speedwell plant response rating (speedwell; PREEMERGENCE, Rate 16 g/ha): 100
Persn Speedwell plant response rating (speedwell; PREEMERGENCE, Rate 32 g/ha): 100
Persn Speedwell plant response rating (speedwell; PREEMERGENCE, Rate 64 g/ha): 100
Persn Speedwell plant response rating (speedwell; PREEMERGENCE, Rate 125 g/ha): 100
Persn Speedwell plant response rating (speedwell; PREEMERGENCE, Rate 250 g/ha): 100
